Laboratory results taken from patent US20230117592A1 (SRI International, priority 2019, published 2023).
Where “and” joins values, the source holds several entries; their conditions need not be identical. Identical values can stand only once. Like-named read-outs stand apart in the source and are kept apart here.

Key:
5-LOX = target: T1, 5-LOX (Homo sapiens, UniProt P09917); test: 5-LOX fluorescent assay (in vitro lipoxygenase inhibition); format: biochemical; conditions: recombinant 5-LOX cell lysate, 20 μM AA, DHR123 fluorescence; several values in a cell = repeat determinations; read-out: IC50 (μM) values for in vitro lipoxygenase inhibition, 5-LOX
T1 sequence (P09917 1-674): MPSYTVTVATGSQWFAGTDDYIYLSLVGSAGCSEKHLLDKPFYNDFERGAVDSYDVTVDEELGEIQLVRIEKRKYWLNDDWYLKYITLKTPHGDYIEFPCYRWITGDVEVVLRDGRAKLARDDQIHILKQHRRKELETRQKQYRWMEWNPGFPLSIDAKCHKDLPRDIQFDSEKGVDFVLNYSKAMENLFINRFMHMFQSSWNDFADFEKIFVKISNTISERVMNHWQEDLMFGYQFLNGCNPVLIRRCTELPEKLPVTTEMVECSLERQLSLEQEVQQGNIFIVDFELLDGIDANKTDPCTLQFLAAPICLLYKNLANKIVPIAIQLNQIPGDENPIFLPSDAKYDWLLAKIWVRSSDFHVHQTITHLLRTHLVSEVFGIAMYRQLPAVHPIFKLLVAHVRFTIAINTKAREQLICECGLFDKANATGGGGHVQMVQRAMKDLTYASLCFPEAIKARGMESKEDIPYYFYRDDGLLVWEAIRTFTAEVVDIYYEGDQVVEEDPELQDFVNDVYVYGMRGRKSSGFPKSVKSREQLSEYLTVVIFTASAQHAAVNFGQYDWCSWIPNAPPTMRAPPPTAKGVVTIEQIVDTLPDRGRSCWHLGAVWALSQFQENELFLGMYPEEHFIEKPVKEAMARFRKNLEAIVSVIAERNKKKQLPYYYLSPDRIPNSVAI
Method: 5-LOX FI assay Fluorescent Assay
The enzyme assay (100 μL) contained 50 mM Tris, pH 7.5, 0.1 mM EDTA, 0.3 mM CaCl2, 20 μM AA, 100 μM ATP, 1 μM DHR123, and recombinant 5-LOX cell lysate (0.5 μL/100 μL). Inhibitors (dissolved in DMSO) were plated at 1 μL into 96-well assay microplates followed by a 40 μL addition of a solution containing 5-LOX enzyme. Enzyme was pre-incubated with compounds for 15 mins. The assay was initiated by the addition of a 40 μL substrate solution containing AA and ATP, and 20 μL addition of a solution containing DHR123. […] Percent inhibition was calculated for each compound dose for IC50 curve fitting using 4 Parameter Logistic Model or Sigmoidal Dose-Response Model.

12-LOX = target: T2, 12-LOX (Homo sapiens, UniProt P18054); test: 12-LOX fluorescent assay (in vitro lipoxygenase inhibition); format: biochemical
T2 sequence (P18054 1-663): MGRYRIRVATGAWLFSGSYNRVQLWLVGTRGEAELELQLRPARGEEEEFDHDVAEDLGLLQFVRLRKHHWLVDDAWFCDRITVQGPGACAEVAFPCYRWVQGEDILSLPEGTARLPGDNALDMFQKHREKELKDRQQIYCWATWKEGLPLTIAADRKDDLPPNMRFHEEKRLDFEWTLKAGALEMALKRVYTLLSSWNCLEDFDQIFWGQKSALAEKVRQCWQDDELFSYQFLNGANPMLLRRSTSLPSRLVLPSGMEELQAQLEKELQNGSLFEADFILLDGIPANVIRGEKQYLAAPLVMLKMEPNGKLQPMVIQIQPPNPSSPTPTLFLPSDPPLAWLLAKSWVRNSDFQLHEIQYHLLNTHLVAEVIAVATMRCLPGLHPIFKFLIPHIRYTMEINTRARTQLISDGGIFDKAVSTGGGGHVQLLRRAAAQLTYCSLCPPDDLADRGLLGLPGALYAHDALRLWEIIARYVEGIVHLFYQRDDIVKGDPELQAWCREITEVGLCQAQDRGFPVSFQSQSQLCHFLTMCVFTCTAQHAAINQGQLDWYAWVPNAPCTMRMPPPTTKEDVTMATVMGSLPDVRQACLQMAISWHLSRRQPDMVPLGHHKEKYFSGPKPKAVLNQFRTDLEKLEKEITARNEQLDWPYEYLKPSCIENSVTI
Method: 12-LOX/15-LOX Fluorescent Assay
The enzyme assay (100 ul) contained 50 mM Tris, pH 7.5, 0.05% Tween-20, 20 μM AA/LA, 1 μM DHR123, and 100 nM recombinant 12-LOX enzyme/50 nM recombinant 15-LOX enzyme. Inhibitors (dissolved in DMSO) were plated at 1 μL into 96-well assay microplates followed by a 40 μL addition of a solution containing 12-LOX/15-LOX enzyme. Enzyme was pre-incubated with compounds for 15 mins. The assay was initiated by the addition of a 40 μL substrate solution containing AA/LA, and 20μL addition of a solution containing DHR123. […] Percent inhibition was calculated for each compound dose for IC50 curve fitting using 4 Parameter Logistic Model or Sigmoidal Dose-Response Model.

[1] = 100 nM recombinant 12-LOX, 20 μM AA, DHR123 fluorescence, several values in a cell = repeat determinations, read-out: IC50 (μM) values for in vitro lipoxygenase inhibition, 12-LOX

Row | SMILES | IC50 (5-LOX) | IC50 (12-LOX; [1]) | IC50 (12-LOX) [µM]
1 | Fc1ccc(CNc2ccc(NCCn3cncn3)c(-c3cccc4cc[nH]c34)c2)cc1 [SS20308-0225-01, N^1-(2-(1H-1,2,4-triazol-1-yl)ethyl)-N^4-(4-fluorobenzyl)-2-(1H-indol-7-yl)benzene-1,4-diamine] | 0.05 µM | 0.03 µM | 
2 | Fc1ccc(C(Nc2ccc(NCCn3cncn3)cc2)C(F)(F)F)cc1 (centres unmarked) [SS20308-0232-01, N^1-(2-(1H-1,2,4-triazol-1-yl)ethyl)-N^4-(2,2,2-trifluoro-1-(4-fluorophenyl)ethyl)benzene-1,4-diamine] | 0.69 µM | 0.14 µM | 
3 | Fc1ccc(CNc2ccc(NCCCn3cncn3)c(F)c2)cc1 [SS20308-0236-01, N^1-(3-(1H-1,2,4-triazol-1-yl)propyl)-2-fluoro-N^4-(4-fluorobenzyl)benzene-1,4-diamine] | 0.1 µM and 0.18 µM | 0.04 µM and 0.03 µM | 
4 | Cc1ccc(NCc2ccc(F)cc2)cc1NCCCn1cncn1 [SS20308-0237-01, N^3-(3-(1H-1,2,4-triazol-1-yl)propyl)-N^1-(4-fluorobenzyl)-4-methylbenzene-1,3-diamine] | 0.28 µM | 0.18 µM | 
5 | c1ncn(CCCNc2ccc(NC3CCCCC3)cc2)n1 [SS20308-0239-01, N^1-(3-(1H-1,2,4-triazol-1-yl)propyl)-N^4-cyclohexylbenzene-1,4-diamine] | 0.04 µM and 0.07 µM |  | 0.03
6 | c1cc(NCC2(Cn3cncn3)COC2)cc(NC2CCCCC2)c1 [SS20308-0241-01, N^1-((3-((1H-1,2,4-triazol-1-yl)methyl)oxetan-3-yl)methyl)-N^3-cyclohexylbenzene-1,3-diamine] | 1.09 µM | 0.36 µM | 
7 | FC(F)(F)C(Nc1ccc(NCCn2cncn2)cn1)c1ccccc1 (centres unmarked) [SS20308-0245-01, N^5-(2-(1H-1,2,4-triazol-1-yl)ethyl)-N^2-(2,2,2-trifluoro-1-phenylethyl)pyridine-2,5-diamine] | 1.19 µM | 0.51 µM | 
8 | Fc1ccc(CNc2ccc(NCCn3cncn3)cn2)cc1 [SS20308-0246-01, N^5-(2-(1H-1,2,4-triazol-1-yl)ethyl)-N^2-(4-fluorobenzyl)pyridine-2,5-diamine] | 0.51 µM | 0.08 µM | 
9 | Fc1ccc(Nc2ccc(NCCn3cncn3)cn2)cc1 [SS20308-0248-01, N^5-(2-(1H-1,2,4-triazol-1-yl)ethyl)-N^2-(4-fluorophenyl)pyridine-2,5-diamine] | 0.63 µM | 0.1 µM | 
10 | Fc1ccc(CNc2cccc(NCCn3cncn3)n2)cc1 [SS20308-0249-01, N^2-(2-(1H-1,2,4-triazol-1-yl)ethyl)-N^6-(4-fluorobenzyl)pyridine-2,6-diamine] | 1.59 µM | 0.37 µM | 
11 | FC1(F)CCC(CNc2cccc(NCCn3cncn3)n2)CC1 [SS20308-0250-01, N^2-(2-(1H-1,2,4-triazol-1-yl)ethyl)-N^6-((4,4-difluorocyclohexyl)methyl)pyridine-2,6-diamine] | 1.26 µM | 0.32 µM | 

The next lines start with results.

Row | IC50 (5-LOX) | IC50 (12-LOX; [1]) | SMILES | IC50 (12-LOX) [µM]
12 | 0.04 µM | 0.03 µM | c1ccc(CNc2ccc(NCCn3cncn3)c(-c3cccnc3)c2)cc1 [SS20308-0216-01, N^1-(2-(1H-1,2,4-triazol-1-yl)ethyl)-N^4-benzyl-2-(pyridin-3-yl)benzene-1,4-diamine] | 
13 | 0.02 µM and 0.06 µM | 0.02 µM and 0.04 µM | c1ccc(-c2cc(NCC3CCCCC3)ccc2NCCn2cncn2)cc1 [SS20308-0217-01, N^2-(2-(1H-1,2,4-triazol-1-yl)ethyl)-N^5-(cyclohexylmethyl)-[1,1′-biphenyl]-2,5-diamine] | 
14 | 0.02 µM | 0.01 µM | c1ccc(CNc2ccc(NCCn3cncn3)c(-c3cccs3)n2)cc1 [SS20308-0218-01, N^5-(2-(1H-1,2,4-triazol-1-yl)ethyl)-N^2-benzyl-6-(thiophen-2-yl)pyridine-2,5-diamine] | 
15 | 4.78 µM | 2.68 µM | c1ccc(CNc2cnc(-c3ccccc3)c(NCCn3cncn3)c2)cc1 [SS20308-0219-01, N^3-(2-(1H-1,2,4-triazol-1-yl)ethyl)-N^5-benzyl-2-phenylpyridine-3,5-diamine] | 
16 | 0.66 µM | 0.11 µM | c1ccc(CNc2ccc(-c3ccccc3)c(NCCn3cncn3)n2)cc1 [SS20308-0221-01, N^2-(2-(1H-1,2,4-triazol-1-yl)ethyl)-N^6-benzyl-3-phenylpyridine-2,6-diamine] | 
17 | 0.49 µM | 0.11 µM | c1ccc(Nc2cccc(NCCn3cncn3)c2)cc1 [SS20308-0223-01, N^1-(2-(1H-1,2,4-triazol-1-yl)ethyl)-N^3-phenylbenzene-1,3-diamine] | 
18 | 0.14 µM | 0.06 µM | FC(F)(F)C(Nc1ccc(NCCn2cncn2)c(-c2ccccc2)c1)c1ccccc1 (centres unmarked) [SS20308-0226-01, N^2-(2-(1H-1,2,4-triazol-1-yl)ethyl)-N^5-(2,2,2-trifluoro-1-phenylethyl)-[1,1′-biphenyl]-2,5-diamine] | 
19 | 0.39 µM | 0.03 µM | Fc1ccc(CNc2cc(F)c(NCCn3cncn3)c(-c3ccccc3)c2)cc1 [SS20308-0227-01, N^2-(2-(1H-1,2,4-triazol-1-yl)ethyl)-3-fluoro-N^5-(4-fluorobenzyl)-[1,1′-biphenyl]-2,5-diamine] | 
20 | 0.16 µM | 0.02 µM | Fc1ccc(CNc2ccc(NCCn3cncn3)c(-c3ccccc3)c2F)cc1 [SS20308-0228-01, N^2-(2-(1H-1,2,4-triazol-1-yl)ethyl)-6-fluoro-N^5-(4-fluorobenzyl)-[1,1′-biphenyl]-2,5-diamine] | 
21 | 0.08 µM and 0.26 µM | 0.02 µM | Fc1ccc(CNc2cc(-c3ccccc3)c(NCCn3cncn3)cc2F)cc1 [SS20308-0229-01, N2-(2-(1H-1,2,4-triazol-1-yl)ethyl)-4-fluoro-N5-(4-fluorobenzyl)-[1,1′-biphenyl]-2,5-diamine] | 
22 | 0.4 µM | 0.17 µM | c1cc(NCCCn2cncn2)cc(NC2CCCCC2)c1 [SS20308-0238-01, N^1-(3-(1H-1,2,4-triazol-1-yl)propyl)-N^3-cyclohexylbenzene-1,3-diamine] | 
23 | 0.02 µM and 0.03 µM | 0.01 µM | c1ncn(CCCNc2ccc(NCC3CCCCC3)cc2)n1 [SS20308-0240-01, N^1-(3-(1H-1,2,4-triazol-1-yl)propyl)-N^4-(cyclohexylmethyl)benzene-1,4-diamine] | 
24 | 0.09 µM | 0.05 µM | c1ncn(CC2(CNc3ccc(NCC4CCCCC4)cc3)COC2)n1 [SS20308-0242-01, N^1-((3-((1H-1,2,4-triazol-1-yl)methyl)oxetan-3-yl)methyl)-N^4-(cyclohexylmethyl)benzene-1,4-diamine] | 
25 | 0.63 µM | 0.13 µM | FC1(F)CCC(CNc2ccc(NCCn3cncn3)cn2)CC1 [SS20308-0247-01, N^5-(2-(1H-1,2,4-triazol-1-yl)ethyl)-N^2-((4,4-difluorocyclohexyl)methyl)pyridine-2,5-diamine] | 
